Measurements reported in patent US7666639B2, “Plant deoxyribonucleoside kinase enzymes and their use” (priority 2002, dated 2010).

Assays:
[1] = test system: KY895 cells transformed with pGEX-2T; experiment: LD100 for growth of transformed KY895 on nucleoside analog plates, pGEX-2T; format: cell-based, E. coli; settings: transformant pGEX-2T; M9 plates, 24 hours at 37° C.
Protocol: (§1) Deoxyribonucleoside kinases are of interest as suicide-genes to be used in gene-mediated therapy of cancer or viral infections. In this example the potential of the plant kinases of the invention to convert different nucleoside analogs are compared to that of the human Herpes simplex virus type 1 thymidine kinase (HSV1-TK) in a bacterial test system.
(§2) The experiment was carried out essentially as described by Knecht et al. [Knecht W, Munch-Petersen B and Piskur J: Identification of residues involved in the specificity and regulation of the highly efficient multisubstrate deoxyribonucleoside kinase from Drosophila melanogaster; J. Mol. Biol. 2000 301 827-837]. Briefly, overnight cultures of transformed KY895 were diluted 200-filed in 10% glyercol and 2 μl drops of the dilutions were spotted on M9 minimal medium plates [Ausubel F, Brent R, Kingston R E, Moore D D, Seidman J G, Smith J A & Struhl K (Eds.): Short protocols in molecular biology; 3rd edition (1995) pp. 1-2, Wiley, USA] supplemented with 0.2% glucose, 40 μg/ml isoleucine, 40 μg/ml valine, 100 μg/ml ampicillin and with or without nucleoside analogs. Growth was inspected visually after 24 hours of incubation at 37° C.

[2] = test system: KY895 cells transformed with pGEX-2T-TOM-dCK/dGK; experiment: LD100 for growth of transformed KY895 on nucleoside analog plates, pGEX-2T-TOM-dCK/dGK; format: cell-based, E. coli
Protocol: as §1, §2

[3] = test system: KY895 cells transformed with pGEX-2T-TOM-ΔNdCK/dGK; experiment: LD100 for growth of transformed KY895 on nucleoside analog plates, pGEX-2T-TOM-ΔNdCK/dGK; format: cell-based, E. coli
Protocol: as §1, §2

[4] = test system: KY895 cells transformed with pGEX-2T-TOM-dCK/dGKΔC; experiment: LD100 for growth of transformed KY895 on nucleoside analog plates, pGEX-2T-TOM-dCK/dGKΔC; format: cell-based, E. coli; settings: transformant pGEX-2T-TOM-dCK/dGKΔC; M9 plates, 24 hours at 37° C.
Protocol: as §1, §2

[5] = test system: KY895 cells transformed with pGEX-2T-TOM-ΔNdCK/dGKΔC; experiment: LD100 for growth of transformed KY895 on nucleoside analog plates, pGEX-2T-TOM-ΔNdCK/dGKΔC; format: cell-based, E. coli; settings: transformant pGEX-2T-TOM-ΔNdCK/dGKΔC; M9 plates, 24 hours at 37° C.
Protocol: as §1, §2

[6] = test system: KY895 cells transformed with pGEX-2T-AT-dCK/dGK; experiment: LD100 for growth of transformed KY895 on nucleoside analog plates, pGEX-2T-AT-dCK/dGK; format: cell-based, E. coli
Protocol: as §1, §2

[7] = test system: KY895 cells transformed with pGEX-2T-HSV-TK; experiment: LD100 for growth of transformed KY895 on nucleoside analog plates, pGEX-2T-HSV-TK; format: cell-based, E. coli; settings: transformant pGEX-2T-HSV-TK; M9 plates, 24 hours at 37° C.
Protocol: as §1, §2

[8] = test system: Glioblastoma U-118-MG cells, parental; experiment: Cell proliferation assay - cytotoxicity (XTT), U-118-MG parental; format: cell-based; settings: Homo sapiens, 96-120 hours of drug exposure
Protocol: (§3) Human breast MCF-7 (ATCC HTB-22) and Glioblastoma U-118-MG (ATCC HTB-15) cancer cells were purchased from the American Type Culture Collection. Cells were cultured in RPMI, E-MEM or D-MEM (Cambrex, Bio Whittaker Cat. No. 12-115-F, 12-611 and 12-741-F) with 10% (v/v) Australian originated fetal calf serum (Cambrex, Bio Whittaker Cat. No. 12-611) and 1 ml/l of Gentamicin (Cambrex, Bio Whittaker Cat. No. 17-518). Cells were grown at 37° C. in a humidified incubator with a gas phase of 5% CO2.
(§4) Cells were plated at densities range of 1.500-3.500 cells/well in 96-well plates coated with Poly-L-lysine (Sigma Cat. No. P6282) Gemcitabine (obtained from Orifarm A/S—DK) was added after 24 hours of incubation at 37° C., 5% CO2, and the medium containing the nucleoside analog. Each experiment was performed in four replicates. Cell survival was assayed after 96-120 hours of drug exposure, by XTT cell proliferation kit (X) kit II, Roche Cat. No. 1 465 015). […] The IC50 value of the investigated drug/compound was calculated as the mean of these experiments using SigmaPlot®) (SPSS Science, Dyrberg Traiding—DK).
(§5) The sensitivity of the untransduced cells, and of the cells transduced with either the retroviral vector alone ore the vector containing plant kinases for Gemcitabine was determined.
(§6) The cytotoxicity (IC50 value) was determined after 96-120 hours of drug exposure.

[9] = test system: Glioblastoma U-118-MG cells transduced with PZG190 (AtdCGK); experiment: Cell proliferation assay - cytotoxicity (XTT), U-118-MG transduced with PZG190; format: cell-based; settings: Homo sapiens; U-118-MG PZG190; 96-120 hours of drug exposure
Protocol: (§7) Two constructs were obtained: AtdCGK (PZG190) and TomdCGK (PZG193). LCXSN alone was used as a control.
(§8) The virus containing medium was subsequently used to transduce the cancer cell lines with a MOI of 5.
as §3, with “CO2. […]” for “CO2.”
as §4, with “analog.” for “analog. Each experiment was performed in four replicates. Cell survival was assayed after 96-120 hours of drug exposure, by XTT cell proliferation kit (X) kit II, Roche Cat. No. 1 465 015).”
as §5, §6

[10] = test system: breast MCF-7 cells, parental; experiment: Cell proliferation assay - cytotoxicity (XTT), MCF-7 parental; format: cell-based; settings: Homo sapiens, MCF7, 96-120 hours of drug exposure
Protocol: as §3, §4, §5, §6

[11] = test system: breast MCF-7 cells transduced with PZG190 (AtdCGK); experiment: Cell proliferation assay - cytotoxicity (XTT), MCF-7 transduced with PZG190; format: cell-based, Human
Protocol: as §7, §8
as §3, with “CO2. […]” for “CO2.”
as §4, with “analog.” for “analog. Each experiment was performed in four replicates. Cell survival was assayed after 96-120 hours of drug exposure, by XTT cell proliferation kit (X) kit II, Roche Cat. No. 1 465 015).”
as §5, §6

[12] = test system: breast MCF-7 cells transduced with PZG193 (TomdCGK); experiment: Cell proliferation assay - cytotoxicity (XTT), MCF-7 transduced with PZG193; format: cell-based, Human
Protocol: as §7, §8
as §3, with “CO2. […]” for “CO2.”
as §4, with “analog.” for “analog. Each experiment was performed in four replicates. Cell survival was assayed after 96-120 hours of drug exposure, by XTT cell proliferation kit (X) kit II, Roche Cat. No. 1 465 015).”
as §5, §6

[13] = test system: cells transduced with the pLCXSN vector alone; experiment: Cell proliferation assay - cytotoxicity (XTT), cells transduced with pLCXSN vector alone; format: cell-based, Human; settings: pLCXSN vector alone versus parental
Protocol: as §7, §8
as §3, with “CO2. […]” for “CO2.”
as §4, with “analog.” for “analog. Each experiment was performed in four replicates. Cell survival was assayed after 96-120 hours of drug exposure, by XTT cell proliferation kit (X) kit II, Roche Cat. No. 1 465 015).”
as §5, §6

Nc1ccn([C@@H]2O[C@H](CO)[C@@H](O)C2(F)F)c(=O)n1 [dFdC, 2′,2′-difluorodeoxycytidine]
LD100 for growth of transformed KY895 cells [1]: 100 µM | killed at fold lower concentrations than cells transformed with pGEX-2T-HSV-TK or pGEX-2T ([2]; KY895 with expression plasmid for TOM-dCK/dGK): 10 fold | LD100 for growth of transformed KY895 cells ([2]; transformant pGEX-2T-TOM-dCK/dGK, M9 plates, 24 hours at 37° C.): 10 µM | killed at fold lower concentrations than cells transformed with pGEX-2T-HSV-TK or pGEX-2T ([3]; KY895 with expression plasmid for TOM-ΔNdCK/dGK): 10 fold | LD100 for growth of transformed KY895 cells ([3]; transformant pGEX-2T-TOM-ΔNdCK/dGK, M9 plates, 24 hours at 37° C.): 10 µM | LD100 for growth of transformed KY895 cells [4]: 100 µM | LD100 for growth of transformed KY895 cells [5]: 100 µM | LD100 fold lower than that of HSV1-TK ([6]; KY895 with AT-dCK/dGK versus HSV1-TK): 10000 fold | LD100 for growth of transformed KY895 cells ([6]; transformant pGEX-2T-AT-dCK/dGK, M9 plates, 24 hours at 37° C.): 0.01 µM | LD100 for growth of transformed KY895 cells [7]: 100 µM | IC50 [8]: 6.2 nM | IC50 [9]: 0.3 nM | IC50 [10]: 3120 nM | IC50 ([11]; Homo sapiens, MCF7, MCF-7 PZG190, 96-120 hours of drug exposure): 500 nM | Sensitivity factor ([11]; MCF-7 PZG190 compared to the parental cell line): 6-fold | IC50 ([12]; Homo sapiens, MCF7, MCF-7 PZG193, 96-120 hours of drug exposure): 402 nM | Sensitivity factor ([12]; MCF-7 PZG193 compared to the parental cell line): 8-fold | difference in sensitivity between the parental cell line and cells transduced with the pLCXSN vector alone [13]: less than 1 fold
